Assay results reported in patent publication US9833497B2, “Human originated EGF domain proteins and use of the same” (CHENGDU SOURCEBIO LIMITED-LIABILITY COMPANY, priority 2013, dated 2017).

Experiments:
Type in all cases: cell-based
E. coli DH5α = test: Antibacterial activity: MIC and growth curve against E. coli DH5α in 96-well plate; settings: minimal inhibitory concentration against E. coli DH5α; 96-well plate, 5×10^5 CFU/mL, 37° C., judged after 8 h
How it was run: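 Log-phase bacteria (OD600 ~0.5) resuspended in LB at 5×10^5 CFU/mL, exposed to recombinant protein at 50, 25, 12.5 μg/mL final in triplicate, 37 °C shaking at 175 rpm. OD600 read every 30 min; MIC is lowest concentration showing no growth.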

Proteus mirabilis = test: MIC against Gram-negative bacteria: Proteus mirabilis; settings: 5×10^5 CFU/mL
How it was run: (§1)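 Purified recombinant human EGF domain proteins are tested by broth dilution in LB against a 5×10^5 CFU/mL inoculum, with two-fold serial dilutions run in triplicate. Plates are incubated at 37° C with shaking, and the MIC is read as the lowest protein concentration without growth.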

Aeromonas hydrophila = test: MIC against Gram-negative bacteria: Aeromonas hydrophila; settings: 5×10^5 CFU/mL
How it was run: as §1

Proteus vulgaris = test: MIC against Gram-negative bacteria: Proteus vulgaris; settings: 5×10^5 CFU/mL
How it was run: as §1

Pseudomonas aeruginosa = test: MIC against Gram-negative bacteria: Pseudomonas aeruginosa; settings: 5×10^5 CFU/mL
How it was run: as §1

E. coli BL21 = test: MIC against Gram-negative bacteria: E. coli BL21; settings: 5×10^5 CFU/mL
How it was run: as §1

Enterobacter cloacae = test: MIC against Gram-negative bacteria: Enterobacter cloacae; settings: 5×10^5 CFU/mL
How it was run: as §1

Citrobacter diversus = test: MIC against Gram-negative bacteria: Citrobacter diversus; settings: 5×10^5 CFU/mL
How it was run: as §1

Moraxella catarrhalis = test: MIC against Gram-negative bacteria: Moraxella catarrhalis; settings: 5×10^5 CFU/mL
How it was run: as §1

Serratia marcescens = test: MIC against Gram-negative bacteria: Serratia marcescens; settings: 5×10^5 CFU/mL
How it was run: as §1

Klebsiella pneumonia = test: MIC against Gram-negative bacteria: Klebsiella pneumonia; settings: 5×10^5 CFU/mL
How it was run: as §1

## PRT619 (CNCQGGGACDPDTGDCYSGDENPDIECADCPIGFYNDPHDPRSCKP; listed as Homo sapiens)
E. coli DH5α
  MIC: 12.5 µg/mL
Proteus mirabilis; 96-well plate, 37° C., 10 h
  MIC P. mirabilis: 12.5 µg/mL
Aeromonas hydrophila; 96-well plate, 37° C., 10 h
  MIC A. hydrophila: 25 µg/mL
Proteus vulgaris; 96-well plate, 37° C., 10 h
  MIC P. vulgaris: 25 µg/mL
Pseudomonas aeruginosa; 96-well plate, 37° C., 10 h
  MIC P. aeruginosa: 50 µg/mL
E. coli BL21; 96-well plate, 37° C., 10 h
  MIC E. coli BL21: 25 µg/mL
Enterobacter cloacae; 96-well plate, 37° C., 10 h
  MIC E. cloacae: 12.5 µg/mL
Citrobacter diversus; 96-well plate, 37° C., 10 h
  MIC C. diversus: 50 µg/mL
Moraxella catarrhalis; 96-well plate, 37° C., 10 h
  MIC M. catarrhalis: 25 µg/mL
Serratia marcescens; 96-well plate, 37° C., 10 h
  MIC S. marcescens: 50 µg/mL
Klebsiella pneumonia; 96-well plate, 37° C., 10 h
  MIC K. pneumonia: 25 µg/mL

## PRT487 (SLCDLQPDFCLNDGKCDIMPGHGAICRCRVGENWWYRGKHCE; listed as Homo sapiens)
E. coli DH5α
  MIC: 12.5 µg/mL
Proteus mirabilis; 96-well plate, 37° C., 10 h
  MIC against P. mirabilis: 12.5 µg/mL
Aeromonas hydrophila; 96-well plate, 37° C., 10 h
  MIC against A. hydrophila: 25 µg/mL
Proteus vulgaris; 96-well plate, 37° C., 10 h
  MIC against P. vulgaris: 50 µg/mL
Pseudomonas aeruginosa; 96-well plate, 37° C., 10 h
  MIC against P. aeruginosa: 12.5 µg/mL
E. coli BL21; 96-well plate, 37° C., 10 h
  MIC against E. coli BL21: 25 µg/mL
Enterobacter cloacae; 96-well plate, 37° C., 10 h
  MIC against E. cloacae: 12.5 µg/mL
Citrobacter diversus; 96-well plate, 37° C., 10 h
  MIC against C. diversus: 12.5 µg/mL
Moraxella catarrhalis; 96-well plate, 37° C., 10 h
  MIC against M. catarrhalis: 25 µg/mL
Serratia marcescens; 96-well plate, 37° C., 10 h
  MIC against S. marcescens: 12.5 µg/mL
Klebsiella pneumonia; 96-well plate, 37° C., 10 h
  MIC against K. pneumonia: 25 µg/mL

## PRT544 (CDCGARLCDELTGQCICPPRTIPPDCLLCQPQTFGCHPLVGCEE; listed as Homo sapiens)
E. coli DH5α
  MIC: 12.5 µg/mL
Proteus mirabilis; 96-well plate, 37° C., 10 h
  MIC against P. mirabilis: 12.5 µg/mL
Aeromonas hydrophila; 96-well plate, 37° C., 10 h
  MIC against A. hydrophila: 12.5 µg/mL
Proteus vulgaris; 96-well plate, 37° C., 10 h
  MIC against P. vulgaris: 12.5 µg/mL
Pseudomonas aeruginosa; 96-well plate, 37° C., 10 h
  MIC against P. aeruginosa: 12.5 µg/mL
E. coli BL21; 96-well plate, 37° C., 10 h
  MIC against E. coli BL21: 25 µg/mL
Enterobacter cloacae; 96-well plate, 37° C., 10 h
  MIC against E. cloacae: 12.5 µg/mL
Citrobacter diversus; 96-well plate, 37° C., 10 h
  MIC against C. diversus: 12.5 µg/mL
Moraxella catarrhalis; 96-well plate, 37° C., 10 h
  MIC against M. catarrhalis: 12.5 µg/mL
Serratia marcescens; 96-well plate, 37° C., 10 h
  MIC against S. marcescens: 12.5 µg/mL
Klebsiella pneumonia; 96-well plate, 37° C., 10 h
  MIC against K. pneumonia: 25 µg/mL

## PRT879 (TLKQCASAPCRNGGVCREGWNRFICDCIGTGFLGRVCE; listed as Homo sapiens)
E. coli DH5α
  MIC: 25 µg/mL
Proteus mirabilis; P. mirabilis, 10 h cultivation at 37° C.
  MIC (μg/mL) P. mirabilis: 12.5 µg/mL
Aeromonas hydrophila; A. hydrophila, 10 h cultivation at 37° C.
  MIC (μg/mL) A. hydrophila: 12.5 µg/mL
Proteus vulgaris; P. vulgaris, 10 h cultivation at 37° C.
  MIC (μg/mL) P. vulgaris: 12.5 µg/mL
Pseudomonas aeruginosa; P. aeruginosa, 10 h cultivation at 37° C.
  MIC (μg/mL) P. aeruginosa: 12.5 µg/mL
E. coli BL21; 10 h cultivation at 37° C.
  MIC (μg/mL) E. coli BL21: 50 µg/mL
Enterobacter cloacae; E. cloacae, 10 h cultivation at 37° C.
  MIC (μg/mL) E. cloacae: 25 µg/mL
Citrobacter diversus; C. diversus, 10 h cultivation at 37° C.
  MIC (μg/mL) C. diversus: 25 µg/mL
Moraxella catarrhalis; M. catarrhalis, 10 h cultivation at 37° C.
  MIC (μg/mL) M. catarrhalis: 12.5 µg/mL
Serratia marcescens; S. marcescens, 10 h cultivation at 37° C.
  MIC (μg/mL) S. marcescens: 25 µg/mL
Klebsiella pneumonia; K. pneumonia, 10 h cultivation at 37° C.
  MIC (μg/mL) K. pneumonia: 12.5 µg/mL

## PRT85 (KLHFCDSGPCKNSGFCSERWGSFSCDCPVGFGGKDCQ; listed as Homo sapiens)
E. coli DH5α
  MIC: 12.5 µg/mL
Proteus mirabilis; Proteus mirabilis, 96-well plate, 37° C., 10 h
  MIC (μg/mL) P. mirabilis: 50 µg/mL
Aeromonas hydrophila; Aeromonas hydrophila, 96-well plate, 37° C., 10 h
  MIC (μg/mL) A. hydrophila: 12.5 µg/mL
Proteus vulgaris; Proteus vulgaris, 96-well plate, 37° C., 10 h
  MIC (μg/mL) P. vulgaris: 12.5 µg/mL
Pseudomonas aeruginosa; Pseudomonas aeruginosa, 96-well plate, 37° C., 10 h
  MIC (μg/mL) P. aeruginosa: 12.5 µg/mL
E. coli BL21; 96-well plate, 37° C., 10 h
  MIC (μg/mL) E. coli BL21: 12.5 µg/mL
Enterobacter cloacae; Enterobacter cloacae, 96-well plate, 37° C., 10 h
  MIC (μg/mL) E. cloacae: 25 µg/mL
Citrobacter diversus; Citrobacter diversus, 96-well plate, 37° C., 10 h
  MIC (μg/mL) C. diversus: 25 µg/mL
Moraxella catarrhalis; Moraxella catarrhalis, 96-well plate, 37° C., 10 h
  MIC (μg/mL) M. catarrhalis: 50 µg/mL
Serratia marcescens; Serratia marcescens, 96-well plate, 37° C., 10 h
  MIC (μg/mL) S. marcescens: 50 µg/mL
Klebsiella pneumonia; Klebsiella pneumonia, 96-well plate, 37° C., 10 h
  MIC (μg/mL) K. pneumonia: 12.5 µg/mL
